Drawing on PubChem BioAssay AID489022 (Sanford-Burnham Center for Chemical Genomics, 2010), this text covers IC50 for 64 molecules.

The source made the active and inactive calls. How the calls were made is not given here. Some results are limits rather than exact numbers.

Usually IC50 stands for the concentration that gives 50% inhibition.

For the assay, the system named is HEK-293T NF-kB luciferase reporter, luminescence counterscreen. Nature of the assay: NF-kB reporter suppression in HEK-293T cells – luminescence, B-cell screen hits, counter-screen for BCR NF-kB inhibitor project, dose response (AID 489022). (A counterscreen serves to expose hits that act by an unwanted route or on another target.)

With `COc1cc(C(=O)Nc2cc(C)c(OCC(=O)N3CCOCC3)c(C)c2)cc(OC)c1OC`, the IC50 is > 80 µM (inactive).

As for `N=c1c2c(n(Cc3ccc(Cl)c(Cl)c3)c3c1CCC3)CCCC2`, the IC50 is 2.35 µM.

In the case of `Cc1ccc(/C=C2\SC(=S)N(CCCC(=O)Nc3cc(C)on3)C2=O)cc1`, the IC50 was > 80 µM (inactive).

As to `N#Cc1ccccc1COc1ccc(/C=C/C(=O)O)cc1`, the IC50 was 6.03 µM.

As to `COc1ccc(NC(=O)c2cc(-c3ccccn3)nc3ccccc23)cc1S(=O)(=O)N(C)C`, the IC50 is 51.4 µM (inactive).

In the case of `Cn1nc(-c2ccc(N3CCOCC3)c(NS(=O)(=O)c3ccccc3)c2)c2ccccc2c1=O`, the IC50 is 36.9 µM (inactive).

`Cc1nc2cc(-c3cccc(F)c3)nn2c(C)c1CCC(=O)NC(C)CCc1ccco1` (centres undefined): the half-maximal inhibitory concentration (IC50) was 11.4 µM.

`CN1C(=O)CSc2ccc(NC(=O)N3CCN(c4ccccc4)CC3)cc21`: the IC50 was 50.5 µM (inactive).

`COc1ccc(C(=O)Nc2nnc(Cc3cccs3)s2)cc1OC`: the IC50 was > 80 µM (inactive).

`Cc1cc(C)c2nc(NC(=O)C3CSC4(C)CCC(=O)N34)sc2c1` (centres undefined): the IC50 is > 80 µM (inactive).

Turning to `Cc1csc(NC(=O)CCc2c(C)nc3cc(-c4ccc(Cl)cc4)nn3c2C)n1`, the concentration for half-maximal inhibition (IC50) is 10.2 µM.

Take `NC(=O)C1CCN(C(=O)COc2ccc3ccccc3c2Br)CC1`: the IC50 was > 80 µM (inactive).

Take `CCOc1ccc(-c2nc(CSCC(=O)NC3CC3)c(C)o2)cc1`: the IC50 was > 80 µM (inactive).

For `CSC1CCCCC1(O)CSc1nc2c(cc1C#N)CCCC2` (centres undefined), the IC50 is > 80 µM (inactive).

As to `Cc1ccc(C)c(OCc2ccc(C(=O)NN)o2)c1`, the IC50 is > 80 µM (inactive).

`Cc1cc(N(C)C)ccc1N=Nc1ccc(N)cc1`: the IC50 was 64.3 µM (inactive).

In the case of `CCN(CC)c1ccc(/C=C2/C(=O)ON=C2C)cc1`, the IC50 is > 80 µM (inactive).

As to `CCn1c(=O)cc(SCC(=O)N2CCN(C)CC2)c2ccccc21`, the IC50 was > 80 µM (inactive).

Take `CCC(C)(C)c1ccc(OCCCC[n+]2ccccc2)c(C(C)(C)CC)c1`: the IC50 was 8.65 µM.

On to `COCCCn1c(=O)/c(=C\c2cccc(OC)c2OC)s/c1=C(/C#N)C(=O)Nc1ccc(C(=O)O)cc1`, for which the IC50 is 34.1 µM (inactive).

Take `CCCCn1c2c(c(=N)c3ccccc31)CCC2`: the IC50 was 40.8 µM (inactive).

For `CC1(C)CC2CC(C)(CN2S(=O)(=O)c2ccc(C(=O)Nc3ccc(S(=O)(=O)N4CCOCC4)cc3)cc2)C1` (centres undefined), the IC50 is 0.68 µM.

`Cc1nc2ccccn2c1C(=O)/C=C/c1cccc([N+](=O)[O-])c1`: the IC50 was 52.6 µM (inactive).

Turning to `C#CCN(Cc1ccccc1)S(=O)(=O)C=C`, the IC50 was 51.3 µM (inactive).

Consider `Cc1csc(NC(=O)/C=C/c2ccc3c(c2)OCO3)n1`, for which the IC50 is > 80 µM (inactive).

As for `CC(=C/c1ccco1)/C=N/NC(=O)CSc1nnc(SCc2ccc(C)cc2)s1`, the IC50 was > 80 µM (inactive).

For `CC1Cc2ccccc2N1S(=O)(=O)c1cnc(Cl)c(Br)c1` (centres undefined), the IC50 was 41.6 µM (inactive).

As for `Cn1c(=O)cc(OCCCC(=O)NC2CCCC2)c2ccccc21`, the IC50 is 46 µM (inactive).

Consider `CCC(=O)N1c2ccccc2C(N(C(C)=O)c2ccccc2)CC1C` (centres undefined), for which the IC50 was > 80 µM (inactive).

As for `O=c1cccc2c1c1cc[nH]c3ccc(=O)n2c31`, the half-maximal inhibitory concentration (IC50) is 2.93 µM.

In the case of `Cc1ccc(Sc2cc(NCCCO)c([N+](=O)[O-])c3nonc23)cc1`, the IC50 was > 80 µM (inactive).

`Cn1c(=O)cc(SCC(=O)N2CCCC2)c2cc(Cl)ccc21`: the IC50 is > 80 µM (inactive).

On to `O=C(Nc1ccccc1C(=O)Nc1nnc(C(F)(F)F)s1)c1ccccc1`, for which the IC50 was 4.36 µM.

On to `CCN1C(=O)Nc2cccc3cccc1c23`, for which the IC50 is 17.8 µM.

For the molecule `CCN(CC)CCOC(=O)c1ccc(NC(=O)CCCN2C(=O)S/C(=C/c3ccc(OC)cc3)C2=S)cc1`, the IC50 was 11.6 µM.

`CCOc1ccc(-n2c(-c3ccccc3)c[n+]3c2CCCCC3)cc1`: the IC50 is 1.4 µM.

Turning to `CCn1c(=O)c2cc(C(=O)NCc3cccs3)sc2c2ccccc21`, the IC50 is > 80 µM (inactive).

Regarding `CC1=CC(C)(C)Nc2ccc(OC(=O)CN3C(=O)CCC3=O)cc21`, the IC50 was 11.1 µM.

Consider `Cc1ccc(C2(c3ccc(C)cc3)CC2C(=O)Nc2ccc([N+](=O)[O-])cc2O)cc1` (centres undefined), for which the IC50 was 4.59 µM.

For `Cc1cc(C)cc(N2C(=O)NC(=O)/C(=C\c3cccn3-c3ccccc3)C2=O)c1`, the IC50 is > 80 µM (inactive).

As to `COc1ccc(/C=C/c2ccccc2)cc1[C@H]1[C@H]2C=CC[C@@H](C)[C@@H]2C(=O)N1Cc1ccccc1`, the IC50 is > 80 µM (inactive).

In the case of `Cc1ccccc1-n1c(SCc2c(C)noc2C)nnc1-c1c[nH]c2ccccc12`, the IC50 was 33.8 µM (inactive).

For `Cc1cccc(C(=O)Nc2ccc(CC(=O)O)cc2)c1`, the IC50 was 45.2 µM (inactive).

In the case of `Cc1cnc(NC(=O)Nc2ccc(Cl)cc2)s1`, the IC50 was > 80 µM (inactive).

In the case of `Cc1ccc2nc(NC(=O)CSCC(=O)OCC(=O)c3ccc(Br)cc3)sc2c1`, the IC50 was 1.82 µM.

With `CCN1C(=O)c2cccc3c(S(=O)(=O)NCC4CCCO4)ccc1c23` (centres undefined), the IC50 is 54.5 µM (inactive).

On to `COc1cccc(N2CCN(c3ncnc4c3[nH]c3ccc(F)cc34)CC2C)c1` (centres undefined), for which the IC50 is 0.66 µM.

In the case of `CCn1c(=O)cc(SCC(=O)N2CCCCC2)c2ccccc21`, the IC50 is > 80 µM (inactive).

With `CC(C)CCNC(=O)CCCOc1cc(=O)n(C)c2ccccc12`, the IC50 is 60.7 µM (inactive).

As for `CCc1ccc(/C=C2/SC(=S)N(CCC(=O)Nc3cccc(C(=O)O)c3)C2=O)cc1`, the IC50 was > 80 µM (inactive).

For `C/C=C(/C)C(=O)OC1Cc2c(ccc3ccc(=O)oc23)OC1(C)C` (centres undefined), the IC50 is 23.5 µM (inactive).

Consider `Cc1c(CCC(=O)O)c(=O)oc2cc3oc4c(c3cc12)CCCC4`, for which the IC50 was 5.89 µM.

Turning to `COc1ccc(C(=O)Nc2nnc(SCC(=O)Nc3ccc(NC(C)=O)cc3)s2)c(OC)c1`, the IC50 was > 80 µM (inactive).

As to `COc1ccc(-c2noc(N3CCC(C(=O)Nc4cccc(OC)c4)CC3)n2)cc1`, the concentration for half-maximal inhibition (IC50) is 17.9 µM.

Consider `CC(C)(C)c1ccc(-c2noc(CCC(N)=O)n2)cc1`, for which the IC50 is 0.27 µM.

With `O=C(Nc1cccc(S(=O)(=O)Nc2ccc(Cl)cc2)c1)c1ccc(Cl)nc1`, the half-maximal inhibitory concentration (IC50) was 0.79 µM.

In the case of `Cn1c(=O)c2c(SCC(=O)Nc3ccccc3F)nc(-c3ccccc3F)nc2n(C)c1=O`, the IC50 is > 80 µM (inactive).

Turning to `Cc1cc(C)cc(NC(=O)c2nnn(Cc3cc(C)ccc3C)c2N)c1`, the IC50 was 4.79 µM.

Take `O=C1NC[C@H](c2ccccc2)OC(=O)[C@@H](Cc2ccc(F)cc2)C/C=C\C[C@H]1CC(=O)N(CCO)Cc1ccccc1`: the IC50 is 16.9 µM.

As to `CCOC(=O)C1CCN(c2ncnc3c2cnn3-c2ccc(OC)cc2)CC1`, the IC50 was 18.4 µM.

On to `Cc1ccc(C(=O)CSc2nnc(COc3cccc(C)c3)o2)cc1`, for which the IC50 was 21.6 µM (inactive).

Turning to `Cc1ccccc1-c1cc(C(=O)Nc2sc(C(=O)OC(C)C)c(C)c2C#N)c2ccccc2n1`, the IC50 is 0.35 µM.

For `Cc1cc(-c2cc(C(=O)NCc3ccccc3)on2)nc(S(C)(=O)=O)n1`, the half-maximal inhibitory concentration (IC50) is 15.6 µM.

Take `CC(C)(C)c1ccc(-n2ncc3c2CCCC3NC(=O)C2(C(N)=O)CC2)cc1` (centres undefined): the concentration for half-maximal inhibition (IC50) is 0.34 µM.
